US20220280543A1, “DDX17 AND NLRC4 TARGETING FOR INFLAMMATORY DISEASES” (University of Virginia Patent Foundation, priority 2019, published 2022)
“Also recorded” adds a separate entry of the source.

Experiments:
NLRP3/NLRC4 complex = assay: Biotin-streptavidin pulldown of biotin-labeled NRTIs with NLRC4/NLRP3, immunoblot; format: binding; conditions: immunoblot (FIG. 33)
Description: FIG. 33. NRTIs directly bind to NLRP3/NLRC4 complex in a reconstituted system. HEK293 cell were transfected with NLRC4 and NLRP3. Biotin-Labeled NRTIs (D4T, AZT) were added to the HEK cells 4 hours later, and cell pellets were collected for biotin streptavidin pulldown. Binding between NRTIs and NLRC4/NLRP3 was detected by immunoblot. […] The bands of NLRC4 and NLRP3 pulled down with biotinylated NRTI are indicated with black arrows.
Finally, we sought to investigate the mechanism through which NRTIs inhibit NLRC4 inflammasome and asked whether this is NLRP3 dependent. We transfected WT and NLRP3 KO BMDMs with flagellin to examine caspase-1 activation using immunoblot. […] To further confirm the mechanism of action of NRTIs, we investigated whether they directly bind to NLRP3/NLRC4 complex in a reconstituted system. We treated flagellin transfected BMDMs with free and biotin labeled D4T and AZT and pulled down biotin.

RPE degeneration [1] = conditions: intraperitoneal administration; previously reported; cited from earlier work
NLRC4 inflammasome = assay: Flagellin-induced caspase-1 activation in wild type BMDM pre-treated with NRTIs, immunoblot; format: cell-based, mouse; conditions: NRTI at 100 μM for 1 hour, flagellin transfection 3 μg/ml (FIG. 27)
Description: FIG. 27. NRTI block Flagellin induced NLRC4 inflammasome in BMDM. Wild type BMDM cells were pre-treated with exemplary NRTIs (D4T, 3TC) at 100 μM for 1 hour, and then stimulated with flagellin transfection (3 μg/ml). Supernatant and cell lysate were collected for Caspase-1 detection. […] The caspase-1 (p20) bands are indicated with black arrow.
FIG. 28. NRTI (3TC) blocks flagellin-induced NLRC4 inflammasome in a dose dependent manner. Wild type BMDM cell were pre-treated with indicated dose of NRTI (3TC) for 1 hour, and then stimulated with Flagellin transfection (3 μg/ml). Supernatants were collected for Caspase-1 detection. […] The caspase-1 (p20) bands are indicated with black arrow.
FIG. 31. Modified NRTIs (K8, K9) block flagellin-induced NLRC4 inflammasome in BMDM. Wild type BMDM cell were pre-treated with regular NRTI (D4T, 3TC), the modified NRTIs 3-Methyl-3TC (K9) or 2-Ethyl-AZT (K8), or NLRP3 inhibitors (MCC950, CY-09) for 1 hour, and then stimulated with flagellin transfection (3 μg/ml). Supernatants were collected for secreted caspase-1 detection. […] The caspase-1 (p20) bands are indicated with black arrow.
Nucleoside reverse transcriptase inhibitors (NRTIs) are HIV therapeutics that inhibit retrovirus replication. We have previously shown that NRTIs inhibit P2X7-mediated NLRP3 inflammasome activation by an endogenous retroelement Alu RNA (SEQ ID NO: 86). Activation of NLRP3 inflammasome by Alu RNA (SEQ ID NO: 86) causes the death of retinal pigment epithelium (RPE) in geographic atrophy, a severe form of AMD. […] Currently, multiple NLRP3 inflammasome inhibitors such as MCC950, CY09 are available however, there are no inhibitors of NLRC4. So, a need exists to develop inhibitors of NLRC4 inflammasome to study NLRC4 driven diseases. Here, we show for the first time that NRTIs block flagellin induced NLRC4 inflammasome. We pretreated flagellin transfected BMDMs with DT4 and 3TC to examine caspase-1 activation.
NLRC4 oligomerization is another hallmark of inflammasome activation where high-molecular mass NLRC4 protein complexes are assembled. […]

ASC oligomerization [2] = assay: Alu RNA induced ASC oligomerization in human RPE cells after siRNA knockdown; format: cell-based; conditions: 24 hours later Alu RNA 100 pmol (FIG. 25A)
Description: (§1) FIGS. 25A and 25B. NLRC4 knockdown blocks Alu RNA (SEQ ID NO: 86) induced ASC oligomerization and RPE degeneration. Human RPE cell treated with siRNA target on NLRC4 (SMARTPOOL siRNA for NLRC4: CAACUGGGCUCCUCUGUAA; SEQ ID NO: 93) and NAIP (SMARTPOOL siRNA for NAIP: GUAAAGAGCUAUAUGGAUA; SEQ ID NO: 94), 24 hours later, treated with Alu RNA (SEQ ID NO: 86 at 100 pmol) FIG. 25A. […] The band of ASC oligomers was indicated by black arrow. […] The hyperdense areas due to the RPE degeneration in fundus images and ZO-1 disorganizations in RPE sheet are indicated by white arrows.
(§2) Next, we asked whether Alu RNA (SEQ ID NO: 86) also triggered NLRC4 inflammasome activation in human RPE cells. We performed immunofluorescence staining experiments to examine whether Alu RNA (SEQ ID NO: 86) can induce NLRC4 speck formation in human RPE cells. We noticed punctate structures resembling specks of NLRC4 in human RPE cells in response to Alu RNA (SEQ ID NO: 86) treatment (FIG. 24A). […] We further investigated downstream events of NLRC4 inflammasome activation by studying NLRC4-induced ASC oligomerization, a critical step involved in caspase-1 cleavage. NLRC4 siRNA, when co-administered with Alu RNA (SEQ ID NO: 86), blocked ASC oligomerization in vitro (FIG. 25A) and RPE degeneration in vivo (FIG. 25B).

RPE degeneration [3] = assay: Alu RNA induced RPE degeneration in mice, fundus images and ZO-1 staining; format: in vivo; conditions: mice, subretinal Alu RNA; fundus and ZO-1 (FIGS. 25B, 26)
Description: as §1
FIG. 26. […] Wilde type of C57/B6 mice were intravitreally injected with siRNA target on Ddx17 (siRNA for Ddx17: GGCUAGAUGUGGAAGAUGU; SEQ ID NO: 95), and two days later, Nlrc4^−/−, Naip1-6^−/−, mice and Ddx17 knockdown mice were subretinally injected with Alu RNA (SEQ ID NO: 86). […] The hyperdense areas due to the RPE degeneration in fundus images and ZO-1 disorganizations in RPE sheet are indicated by white arrows.
as §2
We delivered Alu RNA (SEQ ID NO: 86) or Alu RNA (SEQ ID NO: 86)+siDDX17 subretinally in WT or NLRC4 KO or NAIP1-6 KO mice and examined for RPE degeneration using fundus photos and ZO-1 staining as described previously.

p-NLRC4 and caspase-1 = assay: Dicer1 knockdown induced inflammasome activation in BMDM, immunoblot; format: cell-based, mouse
Text: FIGS. 20A and 20B. DDX17-NLRC4-NLRP3 are required for Dicer1 knockdown induced inflammasome activation. FIG. 20A. Dicer1 knockdown (siRNA for Dicer 1: GCAGUUGUCCUAAACAGAU; SEQ ID NO: 92) causes increase of p-NLRC4 and caspase-1 activation, which were blocked in Ddx17^−/− iBMDMs. FIG. 20B. Dicer1 knockdown-induced caspase-1 cleavage was impaired in Nlrc4^−/− and Nlrp3^−/− BMDMs. The caspase-1 (p20) bands are indicated with black arrows.
We have previously shown that DICER deficiency mediated accumulation of Alu RNA induces NLRP3 inflammasome activation. So we examined whether DICER knockdown could also induce DDX17-NLRC4-NLRP3 signaling. WT and DDX17 KO BMDMs were transfected with siDICER to examine NLRC4 phosphorylation and caspase-1. […] We then determined phosphorylation of NLRC4 and caspase-1 activation in WT, NLRC4 KO and NLRP3 KO BMDMs after transfection with siDICER or sicontrol.

IL-1β = assay: Alu RNA induced IL-1β release in THP1 cells after siRNA knockdown, ELISA; format: cell-based, human; conditions: siRNA knockdown (FIG. 12B)
Text: (§3) FIGS. 12A and 12B. DDX17 knockdown blocks Alu RNA (SEQ ID NO: 86) induced ASC oligomerization and IL-1β release. FIG. 12A. siRNA mediated DDX17 knockdown (siRNA for DDX17: CCAAUCUGAUGUAUCAGGA; SEQ ID NO: 91), but not Ddx5 (siRNA for DDX5: GGAAAUUACAGUUAGAGGU; SEQ ID NO: 89) in THP1 cells, blocked Alu RNA (SEQ ID NO: 86) induced ASC oligomerization. The band of ASC oligomers were indicated by black arrow. FIG. 12B. siRNA mediated DDX17 knockdown, but not Ddx5 in THP1 cells, blocked Alu RNA (SEQ ID NO: 86) induced IL-1β release.
(§4) To further confirm that DDX17 is the sensor for NLRC4, we investigated caspase-1 cleavage by immunoblotting and IL-1β secretion by ELISA in Alu RNA (SEQ ID NO: 86) or mock treated THP1 cells and DDX17 KO BMDMs respectively.

ASC oligomerization [4] = assay: Alu RNA induced ASC oligomerization in THP1 cells after siRNA knockdown; format: cell-based, human; conditions: siRNA knockdown (FIG. 12A)
Text: as §3, §4

[5] = molecular target: T1, mouse NLR family CARD domain containing 4 (Nlrc4) (mouse, UniProt Q3UP24 1-1024); assay: immunofluorescence of endogenous ASC specks and NLRC4 puncta in SINE RNA-transfected BMDMs
T1 construct: Endogenous protein of mouse BMDM / iBMDM
T1 sequence (Q3UP24 whole entry, the tested form may be a part): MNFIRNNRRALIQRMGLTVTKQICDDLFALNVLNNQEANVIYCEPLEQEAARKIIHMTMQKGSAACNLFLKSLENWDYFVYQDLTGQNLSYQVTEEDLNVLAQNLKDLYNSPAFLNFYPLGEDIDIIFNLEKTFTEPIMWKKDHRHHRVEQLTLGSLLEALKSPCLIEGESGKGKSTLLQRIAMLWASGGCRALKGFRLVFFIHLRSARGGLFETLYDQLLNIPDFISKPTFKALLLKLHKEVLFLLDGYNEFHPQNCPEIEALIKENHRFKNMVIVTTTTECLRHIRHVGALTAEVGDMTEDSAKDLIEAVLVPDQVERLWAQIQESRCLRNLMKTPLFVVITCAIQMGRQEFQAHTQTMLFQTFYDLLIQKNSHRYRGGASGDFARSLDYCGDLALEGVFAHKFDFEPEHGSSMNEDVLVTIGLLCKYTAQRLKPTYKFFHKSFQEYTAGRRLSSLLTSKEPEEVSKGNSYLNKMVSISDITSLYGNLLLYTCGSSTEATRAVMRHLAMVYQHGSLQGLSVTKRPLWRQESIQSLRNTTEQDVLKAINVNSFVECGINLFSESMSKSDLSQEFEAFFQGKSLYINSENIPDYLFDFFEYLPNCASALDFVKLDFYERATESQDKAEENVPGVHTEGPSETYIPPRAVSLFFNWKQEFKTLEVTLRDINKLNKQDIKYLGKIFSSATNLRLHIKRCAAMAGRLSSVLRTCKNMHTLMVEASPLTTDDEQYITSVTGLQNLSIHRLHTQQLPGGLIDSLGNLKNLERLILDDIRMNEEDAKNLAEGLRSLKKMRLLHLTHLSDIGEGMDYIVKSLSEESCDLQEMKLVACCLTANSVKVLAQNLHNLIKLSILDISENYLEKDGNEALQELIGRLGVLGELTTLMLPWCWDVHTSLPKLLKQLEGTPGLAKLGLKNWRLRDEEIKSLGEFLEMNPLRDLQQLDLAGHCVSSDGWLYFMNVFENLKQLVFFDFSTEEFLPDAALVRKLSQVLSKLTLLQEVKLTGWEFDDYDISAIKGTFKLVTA
Description: FIGS. 3A and 3B. SINE RNA-induced ASC oligomerization is dependent on NLRC4 (BMDM). FIG. 3A. Immunofluorescence images of endogenous ASC specks and NLRC4 puncta in BMDMs after transfected with Alu (SEQ ID NO: 86) or B2 (SEQ ID NO: 88) RNA or transfection reagents only (Mock). […] Moreover, NLRC4 proteins assembled as puncta, and co-resided with ASC specks. FIG. 3B. ASC oligomerizations were evaluated in wild-type and Nlrc4^{-/-} BMDMs through cross-linking and western blot. […] The bands of oligomeric ASC protein were indicated by black arrow.
The activated NLRC4 inflammasome undergoes oligomerization by assembling into high-molecular mass multiprotein complexes. We first investigated in situ assembling of NLRC4 and apoptosis speck (ASC) like protein complexes in response to SINE RNA treatment of BMDMs. Immunofluorescence studies show increased NLRC4 and ASC specks in SINE RNA-treated BMDMs compared to mock-treated cells (FIG. 3A). To assess NLRC4 inflammasome assembly, WT and NLRC4 KO BMDM cells were treated with Alu RNA (SEQ ID NO: 86). Disuccinimidyl suberate (DSS) cross-linked lysates were resolved using denaturing SDS-PAGE to detect ASC oligomers and cell lysates were resolved using native polyacrylamide gel electrophoresis (NATIVE-PAGE) to detect NLRC4 oligomerization. […] NLRC4/ASC oligomerization is essential for the cleavage of pro-caspase-1 into its active form p20 and IL-1β release.

Cc1cn([C@H]2C[C@H](N=[N+]=[N-])[C@@H](CO)O2)c(=O)[nH]c1=O [AZT, 3′-deoxy-3′-azidothymidine 1-[(2R,4S,5S)-4-Azido-5-(hydroxymethyl)oxolan-2-yl]-5-methylpyrimidine-2,4-dione]
binding of biotin-labeled NRTI to NLRC4 and NLRP3 (NLRP3/NLRC4 complex): interacted with NLRP3 and NLRC4; also recorded: could directly bind to NLRC4 and NLRP3 protein
Alu RNA induced RPE degeneration in mice (RPE degeneration [1]): prevented

Cc1cn([C@H]2C=C[C@@H](CO)O2)c(=O)[nH]c1=O [D4T, 1-[(2R,5S)-5-(hydroxymethyl)-2,5-dihydrofuran-2-yl]-5-methyl-1,2,3,4-tetrahydropyrimidine-2,4-dion]
binding of biotin-labeled NRTI to NLRC4 and NLRP3 (NLRP3/NLRC4 complex): interacted with NLRP3 and NLRC4; also recorded: could directly bind to NLRC4 and NLRP3 protein
Alu RNA induced RPE degeneration in mice (RPE degeneration [1]): prevented
flagellin induced caspase-1 activation (NLRC4 inflammasome): blocked; also recorded: reduced

NLRC4 siRNA: SMARTPOOL siRNA for NLRC4: CAACUGGGCUCCUCUGUAA; SEQ ID NO: 93 (listed as RNA, chemistry not given here)
Alu RNA induced ASC oligomerization, human RPE cells (ASC oligomerization [2]): blocked
Alu RNA induced ASC oligomerization, human RPE cells (ASC oligomerization [2]; listed as SMARTPOOL siRNA for NLRC4): reduced
Alu RNA induced RPE degeneration in vivo, effect of siRNA (RPE degeneration [3]): blocked

siDICER: siRNA for Dicer 1: GCAGUUGUCCUAAACAGAU; SEQ ID NO: 92 (listed as RNA, chemistry not given here)
phosphorylation of NLRC4 after Dicer1 knockdown (p-NLRC4 and caspase-1; WT BMDMs (FIG. 20A)): induced the phosphorylation of NLRC4
caspase-1 activation after Dicer1 knockdown (p-NLRC4 and caspase-1; WT BMDMs (FIG. 20B)): induced the activation of caspase-1

siRNA for Ddx17: siRNA for Ddx17: GGCUAGAUGUGGAAGAUGU; SEQ ID NO: 95, injected in mice (chemistry not fully specified)
Alu RNA induced IL-1β release, THP1 cells, ELISA (IL-1β): blocked
Alu RNA induced ASC oligomerization, THP1 cells (ASC oligomerization [4]): blocked
Alu RNA induced RPE degeneration in vivo, effect of siRNA (RPE degeneration [3]): blocked

B1: mouse apoptosis-associated speck-like protein containing a CARD (ASC) (other, UniProt Q9EPB4 1-193, looked up)
chain: MGRARDAILDALENLSGDELKKFKMKLLTVQLREGYGRIPRGALLQMDAIDLTDKLVSYYLESYGLELTMTVLRDMGLQELAEQLQTTKEESGAVAAAASVPAQSTARTGHFVDQHRQALIARVTEVDGVLDALHGSVLTEGQYQAVRAETTSQDKMRKLFSFVPSWNLTCKDSLLQALKEIHPYLVMDLEQS
notes: Endogenous protein of mouse BMDM
binding result [5]: binds
